In brackets after ≈: the same amount, converted by molar mass. Like-named read-outs stand apart in the source and are kept apart here. Marks after values point to notes of the source that are not given here.
Legend:
[1] = test system: M. tuberculosis strain SPAM13C (LepB-UE); experiment: microbe, parasite or virus in culture; assay type: cell-based, Mycobacterium tuberculosis; details: for MIC: Mycobacterium tuberculosis; for Change in potency against LepB-UE compared to compound 1: decrease in potency relative to compound 1
[2] = test system: wild-type (wt) M. tuberculosis strain; experiment: microbe, parasite or virus in culture; assay type: cell-based, Mycobacterium tuberculosis; details: Mycobacterium tuberculosis
in vitro = assay type: cell-based, African green monkey; details: African green monkey
Procedure: Cytotoxicity against African green monkey adult kidney cell (Vero cells) was determined as previously described using CellTiter-Glo reagent.[44] The concentration causing 50% growth inhibition (IC50) was calculated by fitting the inhibition curves using the Levenberg–Marquardt algorithm.

LepB = biological target: T1, LepB (Mycobacterium tuberculosis, UniProt P9WKA1); experiment: LepB membrane assay (fluorogenic signal peptide cleavage by cell membrane fraction); assay type: biochemical; details: M. tuberculosis H37Rv cell membrane fraction, 2 μM peptide substrate, 4 h at 37 °C
T1 construct: we used purified membrane fractions to develop an in vitro assay for signal peptide cleavage; host or cells: γ-irradiated whole M. tuberculosis H37Rv; Triton X-114 membrane fraction
T1 sequence (P9WKA1 1-294): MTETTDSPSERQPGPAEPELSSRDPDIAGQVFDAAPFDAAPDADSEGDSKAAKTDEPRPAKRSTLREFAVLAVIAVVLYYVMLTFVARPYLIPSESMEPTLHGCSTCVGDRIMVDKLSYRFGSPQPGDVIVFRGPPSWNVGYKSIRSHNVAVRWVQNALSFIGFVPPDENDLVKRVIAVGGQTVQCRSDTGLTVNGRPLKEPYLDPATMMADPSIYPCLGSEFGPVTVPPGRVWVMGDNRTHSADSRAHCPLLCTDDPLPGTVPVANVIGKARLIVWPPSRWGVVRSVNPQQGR

[3] = 120 h, M. tuberculosis strain SPAM13C, OD590 after 5 days at 37 °C, average ± SD of at least two experiments, b = single value, read-out: LepB-UE MIC
[4] = 120 h, […], OD590 after 5 days at 37 °C, average ± SD of at least two experiments, b = single value, read-out: WT MIC
[5] = M. tuberculosis strain SPAM13C, OD590 after 5 days at 37 °C, average ± SD of at least two experiments, b = single value

Q: What does the source list for `CC1=NN(c2nc(C)cc(C)n2)C(=O)C1Cc1ccccc1` (stereo not shown) [Compound 45]?
A: MIC [1, 3]: 56 ± 3 µM (≈ 16.5 µg/mL); MIC [2, 4]: 68 ± 12 µM (≈ 20 µg/mL); CC50 (in vitro): > 100 µM

Q: Which MIC [1, 3] does the source give for `Cc1ccc(Nc2nc(N/N=C/c3ccccc3O)nc(N3CCOCC3)n2)c(Br)c1` [Compound 9] here?
A: The MIC was 11 ± 1 µM (≈ 5.33 µg/mL).

Q: And the MIC [2, 4]?
A: The MIC was 57 ± 24 µM (≈ 27.6 µg/mL).

Q: And the CC50 (in vitro)?
A: The CC50 was 13 µM.

Q: What about the IC50 (LepB) of the same molecule?
A: Its IC50 is greater than 200 µM.

Q: With `Cc1nc2ccccc2nc1N/N=C/c1c(O)ccc2ccccc12` [Compound 7] as the molecule, how does the MIC [1, 3] read?
A: Its MIC is 3.9 ± 1.7 µM (≈ 1.28 µg/mL).

Q: And the MIC [2, 4]?
A: Its MIC is 14 ± 3 µM (≈ 4.6 µg/mL).

Q: And the CC50 (in vitro)?
A: The CC50 was 5.2 µM.

Q: What about the IC50 (LepB) of the same molecule?
A: Its IC50 is 130 µM.

Q: For `Cc1cnn(-c2cc(N/N=C/c3ccccc3O)ncn2)c1` [Compound 4], which MIC [1, 3] is on record?
A: Its MIC is 4.5 ± 2.5 µM (≈ 1.32 µg/mL).

Q: And the MIC [2, 4]?
A: The MIC was 10 ± 7 µM (≈ 2.94 µg/mL).

Q: And the CC50 (in vitro)?
A: The CC50 was 9.2 µM.

Q: And the IC50 (LepB)?
A: Its IC50 is greater than 200 µM.

Q: Which MIC [1, 3] does the source give for `COc1ccc(CC(=O)N/N=C(\C)c2ccccn2)cc1OC` [Compound 36] here?
A: Its MIC is 26 ± 1 µM (≈ 8.15 µg/mL).

Q: And the MIC [2, 4]?
A: The MIC was 53 ± 2 µM (≈ 16.6 µg/mL).

Q: And the CC50 (in vitro)?
A: The CC50 was 12 µM.

Q: What about the IC50 (LepB) of the same molecule?
A: Its IC50 is greater than 200 µM.

Q: Which MIC [1, 3] does the source give for `Cc1cc(C)nc(-n2nc(C)c3c2CC(c2cccs2)CC3=O)n1` (stereo not shown) [Compound 49] here?
A: Its MIC is greater than 200 µM.

Q: And the MIC [2, 4]?
A: Its MIC is greater than 200 µM.

Q: What does the source list for `Cc1ccc(C(N)=O)cc1-n1ccc(-c2cnccn2)n1` [Compound 56]?
A: MIC [1, 3]: > 200 µM; MIC [2, 4]: > 200 µM; CC50 (in vitro): > 100 µM

Q: With `Cc1nc2ccccc2nc1N/N=C/c1ccc(O)c(C)c1O` [Compound 6] as the molecule, how does the MIC [1, 3] read?
A: Its MIC is 3.8 ± 1.3 µM (≈ 1.17 µg/mL).

Q: And the MIC [2, 4]?
A: Its MIC is 26 ± 12 µM (≈ 8.02 µg/mL).

Q: What about the CC50 (in vitro) of the same molecule?
A: Its CC50 is 8.7 µM.

Q: What about the IC50 (LepB) of the same molecule?
A: The IC50 was greater than 200 µM.

Q: Which MIC [1, 3] does the source give for `C/C(=N\Nc1nc(C)cc(C)n1)c1cccnc1` [Compound 26] here?
A: The MIC was greater than 200 µM.

Q: And the MIC [2, 4]?
A: Its MIC is greater than 200 µM.

Q: Which results are given for `Cc1ccc(C(N)=O)cc1-n1ccc(-c2cccnc2)n1` [Compound 53]?
A: MIC [1, 3]: > 200 µM; MIC [2, 4]: > 200 µM; CC50 (in vitro): > 100 µM

Q: Which results are given for `Cc1cc(C)nc(-n2nc(C)cc2C)n1` [Compound 43]?
A: MIC [1, 3]: 48 ± 2 µM (≈ 9.71 µg/mL); MIC [2, 4]: 115 ± 23 µM (≈ 23.3 µg/mL); CC50 (in vitro): > 100 µM; IC50 (LepB): > 200 µM

Q: Which results are given for `C/C(=N\Nc1nc(C)cc(C)n1)c1ccccn1` [Compound 1]?
A: MIC [1, 3]: 3 ± 1.1 µM (≈ 0.724 µg/mL); MIC [2, 4]: 18 ± 1 µM (≈ 4.34 µg/mL); CC50 (in vitro): 2.3 µM; IC50 (LepB): 39 µM

Q: What does the source list for `CSC(=S)N/N=C(\c1ccccc1)c1ccccn1` [Compound 19]?
A: MIC [1, 3]: 6 ± 4.2 µM (≈ 1.72 µg/mL); MIC [2, 4]: 10 ± 3 µM (≈ 2.87 µg/mL); CC50 (in vitro): 2.4 µM

Q: For `CO[C@H]1/C=C/O[C@@]2(C)Oc3c(C)c(O)c4c(O)c(c(/C=N/N5CCN(C)CC5)c(O)c4c3C2=O)NC(=O)/C(C)=C\C=C\[C@H](C)[C@H](O)[C@@H](C)[C@@H](O)[C@@H](C)[C@H](OC(C)=O)[C@@H]1C` [rifampicin, reference compound], which MIC ([1]; rifampicin, LepB-UE strain, read-out: MIC against LepB-UE) is on record?
A: Its MIC is 0.0054 ± 0.0009 µM (≈ 0.00444 µg/mL).

Q: And the MIC ([2]; read-out: MIC against wt)?
A: Its MIC is 0.0077 ± 0.0023 µM (≈ 0.00634 µg/mL).

Q: For `C/C(=N\NC(=S)Nc1cccc(C)c1)c1ccccc1O` [Compound 18], which MIC [1, 3] is on record?
A: Its MIC is 9 ± 5.8 µM (≈ 2.69 µg/mL).

Q: What about the MIC [2, 4] of the same molecule?
A: The MIC was 18 ± 12 µM (≈ 5.39 µg/mL).

Q: And the CC50 (in vitro)?
A: Its CC50 is 11 µM.

Q: For `CCOC(=O)c1c(C)nn(-c2nc(C)cc(C)n2)c1N` [Compound 48], which MIC [1, 3] is on record?
A: The MIC was 44 ± 6 µM (≈ 12.1 µg/mL).

Q: And the MIC [2, 4]?
A: The MIC was greater than 200 µM.

Q: What about the CC50 (in vitro) of the same molecule?
A: Its CC50 is greater than 100 µM.

Q: For `C/C(=N\NC(=N)c1ccccn1)c1ccccn1` [Compound 30], which MIC [1, 3] is on record?
A: Its MIC is 7.7 ± 0.2 µM (≈ 1.84 µg/mL).

Q: What about the “Change in potency against LepB-UE compared to compound 1” value [1] of the same molecule?
A: Its value is “activity was comparable to that of 1”.

Q: What about the MIC [2, 4] of the same molecule?
A: Its MIC is 47 ± 6 µM (≈ 11.2 µg/mL).

Q: And the CC50 (in vitro)?
A: The CC50 was 59 µM.

Q: For `C/C(=N\NC(=O)c1ccc(Br)o1)c1ccccn1` [Compound 35], which “LepB-UE MIC” value [1, 5] is on record?
A: The value was 8.2^b μM.

Q: What about the MIC [2, 4] of the same molecule?
A: The MIC was 5.3 ± 3.3 µM (≈ 1.63 µg/mL).

Q: What about the CC50 (in vitro) of the same molecule?
A: Its CC50 is 0.6 µM.

Q: Which MIC [1, 3] does the source give for `CN(Cc1ccn(C)n1)C(=O)c1ccn(-c2ccc([N+](=O)[O-])cc2)n1` [Compound 51] here?
A: The MIC was greater than 200 µM.

Q: What about the MIC [2, 4] of the same molecule?
A: Its MIC is greater than 200 µM.

Q: And the CC50 (in vitro)?
A: The CC50 was greater than 100 µM.

Q: What does the source list for `Cc1ccn(-c2ccc(C(=O)O)cc2)n1` [Compound 52]?
A: MIC [1, 3]: > 200 µM; MIC [2, 4]: > 200 µM; CC50 (in vitro): > 100 µM

Q: What does the source list for `C/C(=N\NC(=O)c1ccncc1)c1ccccn1` [Compound 31]?
A: LepB-UE MIC [1, 5]: 3.6 ± 0.7 µM; MIC [1, 3]: 3.5 to 15 µM (≈ 0.841 to 3.6 µg/mL); Change in potency against LepB-UE compared to compound 1 [1]: activity was comparable to that of 1; MIC [2, 4]: 4.7 ± 0.3 µM (≈ 1.13 µg/mL); CC50 (in vitro): 10 µM

Q: Which results are given for `OCc1ccccc1-n1ccc(-c2cccnc2)n1` [Compound 55]?
A: MIC [1, 3]: > 200 µM; MIC [2, 4]: > 200 µM; CC50 (in vitro): > 100 µM

Q: Which results are given for `N=C(N/N=C/c1cccc(Cl)c1)c1ccccn1` [Compound 32]?
A: MIC [1, 3]: 41 µM (≈ 10.6 µg/mL); MIC [2, 4]: 59 µM (≈ 15.3 µg/mL); CC50 (in vitro): 62 µM
